Among the data in the NIST ThermoML archive (doi:10.1016/j.fluid.2018.01.023) are mass density values, retold here.

This data set in a line: xn = mol fraction of the nth substance listed. Conditions: 92 K, Liquid, Buoyancy - hydrostatic balance with magnetic suspension - one sinker.

± gives the expanded uncertainty stated by the source.

With `N#N` [nitrogen] + C, where the note is “159.1 kPa, x2 = 0.884”, the mass density (as a rule, mass per unit of volume) was determined as 451 ± 0.7 kg/m3.

Consider `CC` [ethane] + N#N, for which the mass density by setting is: (138.3 kPa, x1 = 0.967) 650.5 ± 1.2 kg/m3; (1039.4 kPa, x1 = 0.952) 651.3 ± 0.9 kg/m3.
